The text below walks through data of US20170157135A1 (Novogen Limited, priority 2013, published 2017).

Holding throughout (format): cell-based
For assay [1], the system named is SKMEL28 melanoma (SK-MeI-28) cells. Nature of the assay: Cell viability assay (MTT), SKMEL28. As to conditions: Homo sapiens, SK-MEL-28, 48 hr treatment. As to the method: (§1) Cell viability assays were also conducted to assess the anti-proliferative effects of the anti-tropomyosin compounds. Briefly, cells (1×10^3/well) were plated (96-well) and treated (48 hr) with anti-tropomyosin drug and viability measured using 3-(4,5-dimethylthiazol-2-yl)-2,5-diphenylterazolium bromide MTT. Cell viability was normalized to control (vehicle alone) and dose-response curves, and half maximal effective concentration (EC50) values were determined using Graph Pad Prism 5 (nonlinear regression sigmoidal dose-response variable slope).

Assay [2] has as its system SHEP neuroblastoma (SH-EP) cells. The assay can be described thus: Cell viability assay (MTT), SHEP. As to conditions: 48 hr treatment. As to the method:
as §1

Assay [3] concerns actin cytoskeleton. Nature of the assay: Microfilament disruption assay (phalloidin actin staining). The note with it: 24 hours. As for the experimental part:
In silico modeling has identified binding sites on tropomyosin Tm5NM1, yielding the series of tropomyosin inhibitors the subject of the present invention. Inhibition of Tm5NM1 in tumour cells results in disruption of the actin cytoskeleton and ultimately cell death. The ability of compounds 2001-2012 to disrupt the actin cytoskeleton was assessed in vitro using the microfilament disruption assay. Briefly, cells were seeded (5×10^3/well) into 8-well chamber slides (NUNC) and treated with the concentrations of anti-tropomyosin compounds nominated in Table 1 for 24 hours using DMSO as vehicle control. Actin was visualized with Alexa 555 conjugated phalloidin (Molecular probes). Random fields were imaged using an Olympus IX81 microscope. Cells (n>50) were scored on the basis of positive filament staining from n=3 independent experiments.

In assay [4] the test system is SK-N-SH neuroblastoma cells. The assay can be described thus: Anti-proliferative assay (cell-titre luminescent), SK-N-SH. As to conditions: Homo sapiens, 72 hours, luminescence. Summed up: (§2)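 Proliferation inhibition is measured by cell-titre luminescence after a 72 h treatment of pre-attached cells with compound at 30, 10, 3, 1, 0.3 and 0.1 μM. Vehicle-normalized curves give EC50 values.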

Assay [5] deals with SK-Mel-28 melanoma cells. The assay can be described thus: Anti-proliferative assay (cell-titre luminescent), SK-Mel-28. The note with it: Homo sapiens; SK-Mel-28, 72 hours, luminescence. In short, it runs like this:
as §2

The subject of assay [6] is DU145 prostate cancer cells. The assay can be described thus: Anti-proliferative assay (cell-titre luminescent), DU145. The note with it: Homo sapiens, DU-145; DU145, 72 hours, luminescence. Summed up: as §2
Assay [7] has as its system PC3 prostate cancer cells. The assay can be described thus: Anti-proliferative assay (cell-titre luminescent), PC3. The note with it: PC3, 72 hours, luminescence. Summed up: as §2
Assay [8] relates to CaCo2 colorectal cancer cells. Nature of the assay: Anti-proliferative assay (cell-titre luminescent), CaCo2. The note with it: Homo sapiens, Caco-2; CaCo2, 72 hours, luminescence. In short, it runs like this:
as §2

Assay [9] has as its system A549 lung (NSLC) cells. Nature of the assay: Anti-proliferative assay (cell-titre luminescent), A549. The note with it: Homo sapiens; A549, 72 hours, luminescence. Summed up:
as §2

For assay [10], the system named is MDA-MB-231 breast cancer cells. The assay can be described thus: Anti-proliferative assay (cell-titre luminescent), MDA-MB-231. The note with it: Homo sapiens; MDA-MB-231, 72 hours, luminescence. In short, it runs like this: as §2

In the case of `C/C(=C\C(=O)N1CCN(CCc2ccccc2)CC1)c1c(C)n(CCCN(C)C)c2ccccc12` [Compound 2001, (E)-3-(1-(3-(dimethylamino)propyl)-2-methyl-1H-indol-3-yl)-1-(4-phenethylpiperazin-1-yl)but-2-en-1-one], the half-inhibitory concentration (IC50) (commonly the concentration at which inhibition is half-maximal) came out at 1.64 µM in assay [1] and 11.5 µM in [2].

For `Cc1c(/C=C/C(=O)N2CCN(CCc3ccc(F)cc3)CC2)c2ccccc2n1CCCN(C)C` [Compound 2002, (E)-3-(1-(3-(dimethylamino)propyl)-2-methyl-1H-indol-3-yl)-1-(4-(4-fluorophenethyl)piperazin-1-yl)prop-2-en-1-one], the concentration for half-maximal inhibition (IC50) in assay [1] was 2.01 µM; in assay [2] it was 9.6 µM; in assay [4], 12.2 µM; in assay [5] it was 5.7 µM; in assay [6] it was 11.1 µM; in assay [7] it was 22.5 µM. Further, the IC50 in [8] amounted to 23.5 µM; in assay [9] it was 11.9 µM; in [10], 11.5 µM. Further, the “Microfilament disruption 10 μM” value in assay [3] is “no cells”.

On to `Cc1c(/C=C/C(=O)N2CCN(Cc3ccc(F)cc3)CC2)c2ccccc2n1CCCN(C)C` [Compound 2003, (E)-3-(1-(3-(dimethylamino)propyl)-2-methyl-1H-indol-3-yl)-1-(4-(4-fluorobenzyl)piperazin-1-yl)prop-2-en-1-one], for which the IC50 came out at 3.1 µM in assay [1] and 2.3 µM in assay [2]. Also, in assay [3], the “Microfilament disruption 10 μM” value is reported as “no cells”.

With `Cc1c(/C=C/C(=O)N2CCN(C(=O)c3ccccc3)CC2)c2ccccc2n1CCCN(C)C` [Compound 2004, (E)-1-(4-benzoylpiperazin-1-yl)-3-(1-(3-(dimethylamino)propyl)-2-methyl-1H-indol-3-yl)prop-2-en-1-one], the half-inhibitory concentration (IC50) in assay [1] turned out to be 32.7 µM; in assay [2] it was 198 µM.

Take `CCCCN1CCN(C(=O)/C=C/c2c(C)n(CCCN(C)C)c3ccccc23)CC1` [Compound 2005, (E)-1-(4-butylpiperazin-1-yl)-3-(1-(3-(dimethylamino)propyl)-2-methyl-1H-indol-3-yl)prop-2-en-1-one]: the half-inhibitory concentration (IC50) in [1] came to 41 µM; in assay [2] it was 12.9 µM.

For `Cc1c(/C=C/C(=O)N2CCN(CCc3ccccc3)CC2)c2ccccc2n1CCN(C)C` [Compound 2006, (E)-3-(1-(2-(dimethylamino)ethyl)-2-methyl-1H-indol-3-yl)-1-(4-phenethylpiperazin-1-yl)prop-2-en-1-one], the half-inhibitory concentration (IC50) in assay [1] was 157 µM; in [2], 12.5 µM.

`Cc1c(/C=C/C(=O)N2CCN(CCc3ccccc3)CC2)c2ccccc2n1CCCN1CCOCC1` [Compound 2007, (E)-3-(2-methyl-1-(3-morpholinopropyl)-1H-indol-3-yl)-1-(4-phenethylpiperazin-1-yl)prop-2-en-1-one]: the values for the concentration for half-maximal inhibition (IC50) in assay [1] and in assay [2] were 33.1 µM and 24 µM, respectively.

With `Cc1c(/C=C/C(=O)N2CCN(CCc3ccccc3)CC2)c2ccccc2n1CCCN1CCN(C)CC1` [Compound 2008, (E)-3-(2-methyl-1-(3-(4-methylpiperazin-1-yl)propyl)-1H-indol-3-yl)-1-(4-phenethylpiperazin-1-yl)prop-2-en-1-one], the half-inhibitory concentration (IC50) in assay [1] was found to be 3.7 µM; in [2], 1.92 µM. The “Microfilament disruption 10 μM” value in [3] is listed as “no cells”.

With `COc1ccc2c(c1)c(/C=C/C(=O)N1CCN(CCc3ccccc3)CC1)c(C)n2CCCN(C)C` [Compound 2009, (E)-3-(1-(3-(dimethylamino)propyl)-5-methoxy-2-methyl-1H-indol-3-yl)-1-(4-phenethylpiperazin-1-yl)prop-2-en-1-one], the IC50 in assay [1] stood at 1.86 µM; in assay [2], 2.4 µM; in [4], 10.8 µM; in [5], 6.5 µM; in assay [6], 14.3 µM; in assay [7], 30 µM. In addition, the IC50 in assay [8] came to 16.1 µM; in assay [9], 54.3 µM; in assay [10], 30 µM. For the same compound, the “Microfilament disruption 10 μM” value in assay [3] is “no cells”.

For `COc1ccc(CN2CCN(C(=O)/C=C/c3c(C)n(CCCN(C)C)c4ccccc34)CC2)cc1` [Compound 2010, (E)-3-(1-(3-(dimethylamino)propyl)-2-methyl-1H-indol-3-yl)-1-(4-(4-methoxybenzyl)piperazin-1-yl)prop-2-en-1-one], the IC50 in [1] stood at 2.75 µM; in [2] it was 3.2 µM.

Consider `Cc1c(/C=C/C(=O)NCCc2ccccc2)c2ccccc2n1CCCN(C)C` [Compound 2011, (E)-3-(1-(3-(dimethylamino)propyl)-2-methyl-1H-indol-3-yl)-N-phenethylacrylamide], for which the values for the IC50 in [1] and in assay [2] were 12.1 µM and 13.2 µM, respectively.

With `Cc1nc(-c2cn(CCCN(C)C)c3ccccc23)cc(N2CCN(CCc3ccccc3)CC2)n1` [Compound 2012, N,N-dimethyl-3-(3-(2-methyl-6-(4-phenethylpiperazin-1-yl)pyrimidin-4-yl)-1H-indol-1-yl)propan-1-amine], the IC50 was 3.2 µM in [1] and 21.7 µM in assay [2].

As to `COc1ccc2c(c1)c(C(=O)N1CCN(CCc3ccccc3)CC1)c(C)n2CCCN1CCN(C)CC1` [Compound 2061, (5-methoxy-2-methyl-1-(3-(4-methylpiperazin-1-yl)propyl)-1H-indol-3-yl)(4-phenethylpiperazin-1-yl)methanone], the half-inhibitory concentration (IC50) in [4] is greater than 30 µM; in assay [5] it was 8.7 µM; in assay [6], greater than 30 µM; in assay [7], greater than 30 µM; in [8], greater than 30 µM; in assay [9], greater than 30 µM. Moreover, in [10], the IC50 was greater than 30 µM.

As to `CCOc1ccc2c(c1)c(C(=O)N1CCN(CCc3ccc(F)cc3)CC1)c(C)n2CCCN(C)C` [Compound 2062, (1-(3-(dimethylamino)propyl)-5-ethoxy-2-methyl-1H-indol-3-yl)(4-(4-fluorophenethyl)piperazin-1-yl)methanone], the half-maximal inhibitory concentration (IC50) in [4] was 20.6 µM; in assay [5] it was 9 µM; in assay [6], greater than 30 µM; in assay [7] it was 13.1 µM; in assay [8], 18.6 µM; in [9], greater than 30 µM. In assay [10], this compound came in with a 50% inhibitory concentration (IC50) of 8.1 µM.

Turning to `CCOc1ccc2c(c1)c(C(=O)N1CCN(CCc3ccc(F)cc3)CC1)c(C)n2CCCN(CC)CC` [Compound 2063, (1-(3-(diethylamino)propyl)-5-ethoxy-2-methyl-1H-indol-3-yl)(4-(4-fluorophenethyl)piperazin-1-yl)methanone], the IC50 in [4] was determined as 5.3 µM; in assay [5], 3.5 µM; in [6] it was 13 µM; in [7], 7.2 µM; in assay [8] it was 4.1 µM; in [9], 10.9 µM. Further, inhibition in [10] was half-maximal at 3 µM (IC50).

Take `CCOc1ccc2c(c1)c(C(=O)N1CCN(CCc3ccc(F)cc3)CC1)c(C)n2CCCN1CCN(C)CC1` [Compound 2064, (5-ethoxy-2-methyl-1-(3-(4-methylpiperazin-1-yl)propyl)-1H-indol-3-yl)(4-(4-fluorophenethyl)piperazin-1-yl)methanone]: the IC50 worked out at 4.3 µM in assay [4]; 3.5 µM in assay [5]; 14 µM in assay [6]; 6.9 µM in [7]; 29.1 µM in [8]; 7.8 µM in assay [9]. This compound had an IC50 in assay [10] of 5.8 µM.
